Experimental data reported in US20240140948A1, “PYRIDOPYRIMIDINE DERIVATIVES AS KRAS INHIBITORS” (BETA PHARMA, INC., priority 2021, published 2024).
Read-outs that look alike come from different tables or passages of the source. Each block holds one compound with its values, some of them ahead of it.

Columns and labels:
KRAS G12C = biological target: T1, KRAS G12C (Homo sapiens, UniProt P01116, G12C); assay: KRAS G12C/SOS1 Nucleotide Exchange Assay (SOS1-mediated Bodipy-GDP to GTP exchange); format: biochemical; conditions: substrate Bodipy-GDP/Kras G12C, 0.5% DMSO; 30 min pre-incubation at RT; dRFU analysis method for covalent inhibitors
T1 construct: aa 2-169, expressed in E. coli; His-tag (TEV cleavable) (N); purchased Reaction Biology Corporation (RBC) SOS1: RBC cat #MSC-11-502; KRAS G12C: none printed; host or cells: E. coli
T1 sequence (P01116 2-169 G12C): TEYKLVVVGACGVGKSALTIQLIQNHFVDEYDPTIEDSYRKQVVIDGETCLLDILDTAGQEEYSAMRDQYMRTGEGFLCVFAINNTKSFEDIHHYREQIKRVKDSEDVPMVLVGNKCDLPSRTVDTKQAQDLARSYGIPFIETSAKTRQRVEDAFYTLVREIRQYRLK
Procedure: The excess Bodipy-GDP is separated from loaded protein using a spin desalting column.
• 1. […] Deliver compounds in 100% DMSO into buffer using acoustic technology (Echo550; nanoliter range). • 3. […] Prepare 3× (SOS1+GTP) solution in reaction buffer. • 5. Deliver 5 μL of SOS1+GTP solution into reactions wells (deliver GTP only to column 1 for no SOS1 control). • 6.
where Yraw is defined as fluorescence at time t, Ao is the average initial fluorescence with no SOS1, and M is the minimum fluorescence at the end of the reaction at the maximum SOS1.
The background subtracted signals (no SOS1 protein wells were used as background) were converted to % activity relative to DMSO controls. Data was analyzed using GraphPad Prism 4 with “sigmoidal dose-response (variable slope)”; 4 parameters with Hill Slope. The constraints were bottom (constant equal to 0) and top (must be less than 120).

[1] = Pharmacokinetics in male CD-1 mice; format: in vivo; conditions: for MRT inf: read-out: MRT0-inf; for MRT last: read-out: MRT0-last
Procedure: The pharmacokinetic profile of the Example 2 (compound la) was determined in male CD-1 mice by WuXi AppTec Co., Ltd., 1318 Wuzhong Avenue, Wuzhong District, Suzhou, China, 215104.

[2] = mouse, 30 mg/kg PO, mean plasma

IC50 (KRAS G12C): 27 nM
SMILES: C=CC(=O)N1CCN(c2nc(OC[C@@H]3CCCN3C)nc3cc(-c4cccc5cccc(Cl)c45)cnc23)C[C@@H]1CC#N [Example 1, 2-((S)-1-Acryloyl-4-(7-(8-chloronaphthalen-1-yl)-2-(((S)-1-methylpyrrolidin-2-yl)methoxy)pyrido[3,2-d]pyrimidin-4-yl)piperazin-2-yl)acetonitrile]

IC50 (KRAS G12C): 63 nM | AUCExtra ([1]; 3 mg/kg IV, mean plasma): 9.23% | AUMCExtra ([1]; 3 mg/kg IV, mean plasma): 35.2% | Tlast ([1]; 3 mg/kg IV, mean plasma): 8.00 h | AUCExtra ([1]; 30 mg/kg PO, mean plasma): 17.1% | AUMCExtra ([1]; 30 mg/kg PO, mean plasma): 43.8% | Tlast ([1]; 30 mg/kg PO, mean plasma): 8.00 h | AUC(0-inf) ([1]; mouse, 3 mg/kg IV, mean plasma): 2450 ng·h/mL | AUC(0-t) ([1]; mouse, 3 mg/kg IV, mean plasma): 2220 ng·h/mL | C0 ([1]; mouse, 3 mg/kg IV, mean plasma): 1270 ng/mL | clearance ([1]; mouse, 3 mg/kg IV, mean plasma): 20.4 mL/min/kg | half-life ([1]; mouse, 3 mg/kg IV, mean plasma, Rsq_adj 0.828 (<0.9, might not be accurately estimated)): 1.89 h | MRT inf ([1]; mouse, 3 mg/kg IV, mean plasma): 2.81 h | MRT last ([1]; mouse, 3 mg/kg IV, mean plasma): 2 h | Vd ([1]; mouse, 3 mg/kg IV, mean plasma, read-out: Vdss): 3.44 L/kg | AUC(0-inf) [1, 2]: 7070 ng·h/mL | AUC(0-t) [1, 2]: 5860 ng·h/mL | Cmax [1, 2]: 1220 ng/mL | Tmax [1, 2]: 1 h | half-life [1, 2]: 2.88 h | MRT inf [1, 2]: 4.75 h | MRT last [1, 2]: 3.22 h | bioavailability ([1]; mouse, plasma, 30 mg/kg PO vs 3 mg/kg IV, calculated from AUC0-inf with nominal dose, read-out: Bioavailability (% F)): 28.8%
SMILES: C=C(F)C(=O)N1CCN(c2nc(OC[C@@H]3CCCN3C)nc3cc(-c4cccc5cccc(Cl)c45)cnc23)C[C@@H]1CC#N [Example 2, 2-((S)-4-(7-(8-Chloronaphthalen-1-yl)-2-(((S)-1-methylpyrrolidin-2-yl)methoxy)pyrido[3,2-d]pyrimidin-4-yl)-1-(2-fluoroacryloyl)piperazin-2-yl)acetonitrile]
